Test results published in US11566007B2, “Ras inhibitors” (Revolution Medicines, Inc., priority 2019, dated 2023).
Read-outs that look alike come from different tables or passages of the source.

How the values were obtained:
[1] = from CCn1c(-c2cccnc2[C@H](C)OC)c(CC(C)(C)CO)c2cc(C3=CCCN(CC(NC(=O)OC(C)(C)C)C(=O)N4CCC[C@@H](C(=O)O)N4)C3)ccc21; ester bond; EDCI.HCl/HOBt/DIPEA; DCM; 7.14 mM; 30.0 °C; 16.0 h
[2] = 18-membered ring
[3] = system: NCI-H358 (K-Ras G12C); test: CellTiter-Glo cell viability assay, NCI-H358; format: cell-based, human; conditions: Homo sapiens, NCI-H358, 120 h, NCI-H358, 5-day treatment; class symbols; read-out: Additional H358 Cell Viability assay data (K-Ras G12C, IC50)
Summary of the method: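 Viability of K-Ras mutant lines is measured by ATP luminescence after five days of compound treatment. Percent of DMSO control is calculated and dose-response data are fitted with a four-parameter logistic equation.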

[4] = biological target: K-Ras G12C (Homo sapiens (Human), UniProt P01116+P62937, G12C); test: Ras-Raf (BRAF RBD) disruption / FRET / MOA assay, KRAS G12C; format: biochemical; conditions: KRAS G12C; Ras-Raf disruption/FRET/MOA assay; read-out: IC50* KRAS G12C FRET data
Chain of K-Ras G12C (P01116-2 other isoform, or with tags, fused parts or gaps G12C): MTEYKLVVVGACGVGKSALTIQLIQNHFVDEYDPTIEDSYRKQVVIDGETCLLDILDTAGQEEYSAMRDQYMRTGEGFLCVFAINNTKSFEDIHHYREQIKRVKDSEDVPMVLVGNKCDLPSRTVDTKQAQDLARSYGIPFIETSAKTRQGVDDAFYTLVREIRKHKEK
Chain of K-Ras G12C (P62937 whole entry): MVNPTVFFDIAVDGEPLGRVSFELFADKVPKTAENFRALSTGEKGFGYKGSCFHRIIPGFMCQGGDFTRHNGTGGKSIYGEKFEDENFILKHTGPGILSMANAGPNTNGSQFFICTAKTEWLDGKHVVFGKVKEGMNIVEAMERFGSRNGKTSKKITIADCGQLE
Summary of the method: (§1)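 Ternary complex formation (Ras–compound–cyclophilin A) displacing BRAF RBD, monitored by TR-FRET. Three hours at 25° C with compound (top 30 μM final), then 1.5 h with the labelled antibodies. Lower ratio than DMSO indicates disruption; IC50 reported.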

[5] = biological target: K-Ras G13C (Homo sapiens (Human), UniProt P01116+P62937, G13C); test: Ras-Raf (BRAF RBD) disruption / FRET / MOA assay, KRAS G13C; format: biochemical; conditions: KRAS G13C; Ras-Raf disruption/FRET/MOA assay; read-out: IC50* KRAS G13C FRET data
Chain of K-Ras G13C (P01116-2 other isoform, or with tags, fused parts or gaps G13C): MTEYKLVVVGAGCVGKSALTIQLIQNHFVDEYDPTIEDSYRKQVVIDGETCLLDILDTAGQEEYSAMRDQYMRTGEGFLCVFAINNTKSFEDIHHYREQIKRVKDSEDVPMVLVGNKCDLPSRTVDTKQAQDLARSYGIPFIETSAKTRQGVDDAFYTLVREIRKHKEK
Chain of K-Ras G13C (P62937 whole entry): as the sequence (P62937 whole entry) above
Summary of the method: as §1

[6] = biological target: KRAS G12S (Homo sapiens (Human), UniProt P01116+P62937, G12S); test: Ras-Raf (BRAF RBD) disruption / FRET / MOA assay, KRAS G12S; format: biochemical; conditions: Ras-Raf disruption/FRET/MOA assay; class symbols; read-out: KRAS G12S FRET data IC50
Chain of KRAS G12S (P01116-2 other isoform, or with tags, fused parts or gaps G12S): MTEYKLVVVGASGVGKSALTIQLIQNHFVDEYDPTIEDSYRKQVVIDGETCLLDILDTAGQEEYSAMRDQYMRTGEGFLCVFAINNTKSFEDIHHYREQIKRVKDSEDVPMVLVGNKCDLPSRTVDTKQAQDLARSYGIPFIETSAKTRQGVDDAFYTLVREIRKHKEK
Chain of KRAS G12S (P62937 whole entry): as the sequence (P62937 whole entry) above
Summary of the method: as §1

[7] = biological target: KRAS G12D (Homo sapiens (Human), UniProt P01116+P62937, G12D); test: Ras-Raf (BRAF RBD) disruption / FRET / MOA assay, KRAS G12D; format: biochemical; conditions: Ras-Raf disruption/FRET/MOA assay; class symbols; read-out: KRAS G12D FRET data IC50
Chain of KRAS G12D (P01116-2 other isoform, or with tags, fused parts or gaps G12D): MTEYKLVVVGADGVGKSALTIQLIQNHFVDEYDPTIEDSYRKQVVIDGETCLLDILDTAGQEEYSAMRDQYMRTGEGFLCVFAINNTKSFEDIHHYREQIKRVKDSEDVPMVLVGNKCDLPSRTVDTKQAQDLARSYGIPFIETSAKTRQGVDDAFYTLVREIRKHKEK
Chain of KRAS G12D (P62937 whole entry): as the sequence (P62937 whole entry) above
Summary of the method: as §1

[8] = biological target: KRAS G12V (Homo sapiens (Human), UniProt P01116+P62937, G12V); test: Ras-Raf (BRAF RBD) disruption / FRET / MOA assay, KRAS G12V; format: biochemical; conditions: read-out: IC50* KRAS G12V FRET data
Chain of KRAS G12V (P01116-2 other isoform, or with tags, fused parts or gaps G12V): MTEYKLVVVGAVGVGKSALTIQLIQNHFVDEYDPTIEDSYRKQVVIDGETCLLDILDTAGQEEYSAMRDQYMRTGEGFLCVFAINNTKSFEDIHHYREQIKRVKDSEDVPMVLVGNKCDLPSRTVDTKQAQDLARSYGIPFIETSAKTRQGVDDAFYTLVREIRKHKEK
Chain of KRAS G12V (P62937 whole entry): as the sequence (P62937 whole entry) above
Summary of the method: as §1

[9] = biological target: KRAS WT (Homo sapiens (Human), UniProt P01116+P62937); test: Ras-Raf (BRAF RBD) disruption / FRET / MOA assay, KRAS WT; format: biochemical; conditions: read-out: IC50* KRAS WT FRET data
Chain of KRAS WT (P01116-2 other isoform, or with tags, fused parts or gaps): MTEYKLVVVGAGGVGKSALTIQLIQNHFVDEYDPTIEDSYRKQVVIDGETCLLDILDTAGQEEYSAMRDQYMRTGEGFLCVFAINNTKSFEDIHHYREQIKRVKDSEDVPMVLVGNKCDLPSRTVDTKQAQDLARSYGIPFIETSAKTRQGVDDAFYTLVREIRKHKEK
Chain of KRAS WT (P62937 whole entry): as the sequence (P62937 whole entry) above
Summary of the method: as §1

[10] = biological target: KRAS G13D (Homo sapiens (Human), UniProt P01116+P62937, G13D); test: Ras-Raf (BRAF RBD) disruption / FRET / MOA assay, KRAS G13D; format: biochemical; conditions: read-out: IC50* KRAS G13D FRET data
Chain of KRAS G13D (P01116-2 other isoform, or with tags, fused parts or gaps G13D): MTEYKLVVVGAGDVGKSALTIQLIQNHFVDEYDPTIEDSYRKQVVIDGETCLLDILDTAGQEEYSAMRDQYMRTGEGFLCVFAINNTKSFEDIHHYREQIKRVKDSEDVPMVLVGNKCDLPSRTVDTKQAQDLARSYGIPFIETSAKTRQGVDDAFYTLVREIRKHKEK
Chain of KRAS G13D (P62937 whole entry): as the sequence (P62937 whole entry) above
Summary of the method: as §1

[11] = biological target: KRAS Q61H (Homo sapiens (Human), UniProt P01116+P62937, Q61H); test: Ras-Raf (BRAF RBD) disruption / FRET / MOA assay, KRAS Q61H; format: biochemical; conditions: Ras-Raf disruption/FRET/MOA assay; class symbols; read-out: KRAS Q61H FRET data IC50
Chain of KRAS Q61H (P01116-2 other isoform, or with tags, fused parts or gaps Q61H): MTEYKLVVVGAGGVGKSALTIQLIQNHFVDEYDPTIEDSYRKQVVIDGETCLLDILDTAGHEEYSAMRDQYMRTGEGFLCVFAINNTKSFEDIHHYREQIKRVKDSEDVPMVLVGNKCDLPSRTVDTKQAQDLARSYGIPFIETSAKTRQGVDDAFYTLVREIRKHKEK
Chain of KRAS Q61H (P62937 whole entry): as the sequence (P62937 whole entry) above
Summary of the method: (§2)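 Compounds were tested as a 10-point 3-fold dilution series from 30 μM final for their ability to drive ternary complex formation between nucleotide-loaded Ras and cyclophilin A, displacing the BRAF RBD. After 3 h at 25° C., anti-His Eu-W1024 (10 nM) and anti-GST allophycocyanin (50 nM) were added for 1.5 h. A TR-FRET ratio decrease versus DMSO gave IC50.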

[12] = biological target: NRAS G12C (Homo sapiens (Human), UniProt P01111+P62937, G12C); test: Ras-Raf (BRAF RBD) disruption / FRET / MOA assay, NRAS G12C; format: biochemical; conditions: read-out: IC50* NRAS G12C FRET data
Chain of NRAS G12C (P01111 whole entry G12C): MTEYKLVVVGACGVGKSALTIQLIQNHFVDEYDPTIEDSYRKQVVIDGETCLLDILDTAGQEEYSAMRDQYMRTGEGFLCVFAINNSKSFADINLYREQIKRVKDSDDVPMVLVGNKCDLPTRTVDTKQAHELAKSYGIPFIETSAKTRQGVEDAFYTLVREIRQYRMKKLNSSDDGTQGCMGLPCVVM
Chain of NRAS G12C (P62937 whole entry): as the sequence (P62937 whole entry) above
Summary of the method: as §1

[13] = biological target: NRAS Q61R (Homo sapiens (Human), UniProt P01111+P62937, Q61R); test: Ras-Raf (BRAF RBD) disruption / FRET / MOA assay, NRAS Q61R; format: biochemical; conditions: NRAS Q61R; Ras-Raf disruption/FRET/MOA assay; read-out: IC50* NRAS Q61R FRET data
Chain of NRAS Q61R (P01111 whole entry Q61R): as the sequence (P01111 whole entry G12C) above, with C12G, Q61R counted along it
Chain of NRAS Q61R (P62937 whole entry): as the sequence (P62937 whole entry) above
Summary of the method: as §2

[14] = biological target: NRAS Q61K (Homo sapiens (Human), UniProt P01111+P62937, Q61K); test: Ras-Raf (BRAF RBD) disruption / FRET / MOA assay, NRAS Q61K; format: biochemical; conditions: NRAS Q61K; Ras-Raf disruption/FRET/MOA assay; read-out: IC50* NRAS Q61K FRET data
Chain of NRAS Q61K (P01111 whole entry Q61K): as the sequence (P01111 whole entry G12C) above, with C12G, Q61K counted along it
Chain of NRAS Q61K (P62937 whole entry): as the sequence (P62937 whole entry) above
Summary of the method: as §2

[15] = biological target: NRAS WT (Homo sapiens (Human), UniProt P01111+P62937); test: Ras-Raf (BRAF RBD) disruption / FRET / MOA assay, NRAS WT; format: biochemical; conditions: read-out: IC50* NRAS WT FRET data
Chain of NRAS WT (P01111 whole entry): as the sequence (P01111 whole entry G12C) above, with C12G counted along it
Chain of NRAS WT (P62937 whole entry): as the sequence (P62937 whole entry) above
Summary of the method: as §2

| Molecule | IC50 [3] | IC50 [4] | IC50 [5] | IC50 [6] | IC50 [7] | IC50 [8] | IC50 [9] | IC50 [10] | IC50 [11] | IC50 [12] | IC50 [13] | IC50 [14] | IC50 [15] | other results |
| --- | --- | --- | --- | --- | --- | --- | --- | --- | --- | --- | --- | --- | --- | --- |
| CCn1c(-c2cccnc2[C@H](C)OC)c2c3cc(ccc31)C1=CCCN(C1)CC(NC(=O)OC(C)(C)C)C(=O)N1CCC[C@H](N1)C(=O)OCC(C)(C)C2 (some centres unmarked) | – | – | – | – | – | – | – | – | – | – | – | – | – | ring closure, yield of all isomers [1]: 40% |
| CCn1c(-c2cccnc2[C@H](C)OC)c2c3cc(ccc31)N1CCO[C@@H](C[C@H](NC(=O)OCc3ccccc3)C(=O)N3CCC[C@H](N3)C(=O)OCC(C)(C)C2)C1 | – | – | – | – | – | – | – | – | – | – | – | – | – | ring closure, isolated yield ([2]; from CCn1c(-c2cccnc2[C@H](C)OC)c(CC(C)(C)CO)c2cc(N3CCO[C@@H](C[C@H](NC(=O)OCc4ccccc4)C(=O)N4CCC[C@@H](C(=O)O)N4)C3)ccc21, ester bond, EDCI/HOBt/DIPEA, DCM, 12.75 mM, 25.0 °C): 66% |
| CO[C@@H](C)c1ncc(N2CCN(C(=O)OCc3ccccc3)CC2)cc1-c1c2c3cc(ccc3n1CC(F)(F)F)-c1cccc(c1)C[C@H](NC(=O)OC(C)(C)C)C(=O)N1CCC[C@H](N1)C(=O)OCC(C)(C)C2 | – | – | – | – | – | – | – | – | – | – | – | – | – | ring closure, isolated yield ([2]; from CO[C@@H](C)c1ncc(N2CCN(C(=O)OCc3ccccc3)CC2)cc1-c1c(CC(C)(C)CO)c2cc(-c3cccc(C[C@H](NC(=O)OC(C)(C)C)C(=O)N4CCC[C@@H](C(=O)O)N4)c3)ccc2n1CC(F)(F)F, ester bond, EDCI/HOBt/DIPEA, DCM, 9.9 mM): 67.9% |
| CO[C@@H](C)c1ncccc1-c1c2c3cc(ccc3n1CC(F)(F)F)N1CCO[C@@H](C[C@H](NC(=O)OCc3ccccc3)C(=O)N3CCC[C@H](N3)C(=O)OCC(C)(C)C2)C1 | – | – | – | – | – | – | – | – | – | – | – | – | – | ring closure, isolated yield ([2]; from CO[C@@H](C)c1ncccc1-c1c(CC(C)(C)CO)c2cc(N3CCO[C@@H](C[C@H](NC(=O)OCc4ccccc4)C(=O)N4CCC[C@@H](C(=O)O)N4)C3)ccc2n1CC(F)(F)F, ester bond, EDCI/HOBt/DIPEA, DCM, 11.25 mM): 74% |
| C=CC(=O)N1CC[C@H](C(=O)N(C)[C@H](C(=O)N[C@H]2Cc3cccc(c3)-c3ccc4c(c3)c(c(-c3cnn(C)c3CN(C)C)n4CC)CC(C)(C)COC(=O)[C@@H]3CCCN(N3)C2=O)C(C)C)C1 (relative stereo) [Example A329] | 100 to 1000 nM | > 10 µM | > 10 µM | > 10 µM | > 10 µM | > 10 µM | > 10 µM | > 10 µM | > 10 µM | > 10 µM | > 10 µM | > 10 µM | > 10 µM | – |
| C=CC(=O)N1CC[C@H](C(=O)N(C)[C@H](C(=O)N[C@H]2Cc3cc(O)cc(c3)-c3cc4c(c(-c5ccccc5CCOC)n(CC)c4cn3)CC(C)(C)COC(=O)[C@@H]3CCCN(N3)C2=O)C(C)C)C1 [Example A102] | > 1000 nM | 1 to 10 µM | > 10 µM | > 10 µM | > 10 µM | > 10 µM | > 10 µM | > 10 µM | 1 to 10 µM | 1 to 10 µM | > 10 µM | > 10 µM | > 10 µM | – |
| C=CC(=O)N1CC[C@H](C(=O)N(C)[C@H](C(=O)N[C@H]2Cc3cc(O)cc(c3)-c3ccc4nc(-c5cccnc5[C@H](C)OC)n(c4c3)CC(C)(C)COC(=O)[C@@H]3CCCN(N3)C2=O)C(C)C)C1 [Example A242] | > 1000 nM | 1 to 10 µM | 1 to 10 µM | > 10 µM | > 10 µM | 1 to 10 µM | > 10 µM | > 10 µM | 1 to 10 µM | 1 to 10 µM | > 10 µM | > 10 µM | > 10 µM | – |
| C=CC(=O)N1CC[C@H](C(=O)N(C)[C@H](C(=O)N[C@H]2Cc3cc(O)cc(c3)-c3ccc4nc(-c5cccnc5COC)c(n4c3)CC(C)(C)COC(=O)[C@@H]3CCCN(N3)C2=O)C(C)C)C1 [Example A243] | > 1000 nM | > 10 µM | > 10 µM | > 10 µM | > 10 µM | > 10 µM | > 10 µM | > 10 µM | > 10 µM | > 10 µM | > 10 µM | > 10 µM | > 10 µM | – |
| C=CC(=O)N1CC[C@H](C(=O)N(C)[C@H](C(=O)NC2C[C@@H]3CN(CCO3)c3ccc4c(c3)c(c(-c3cccnc3[C@H](C)OC)n4CC)CC(C)(C)COC(=O)[C@@H]3CC(Br)CN(N3)C2=O)C(C)C)C1 (some centres unmarked) [Example A313] | > 1000 nM | 1 to 10 µM | > 10 µM | > 10 µM | > 10 µM | > 10 µM | > 10 µM | > 10 µM | > 10 µM | 1 to 10 µM | > 10 µM | > 10 µM | > 10 µM | – |
| C=CC(=O)N1CC[C@H](C(=O)N(C)[C@H](C(=O)N[C@H]2Cc3cccc(c3)-c3ccc4c(c3)c(c(-c3cnn(C5CCN(C)CC5)c3[C@H](C)OC)n4CC)CC(C)(C)COC(=O)[C@@H]3CCCN(N3)C2=O)C(C)C)C1 [Example A482] | 100 to 1000 nM | > 10 µM | > 10 µM | > 10 µM | > 10 µM | > 10 µM | > 10 µM | > 10 µM | > 10 µM | > 10 µM | > 10 µM | > 10 µM | > 10 µM | – |
| tert-butyl ((6^3S,4S)-1^1-ethyl-1^2-(2-((S)-1-methoxyethyl)pyridin-3-yl)-10,10-dimethyl-5,7-dioxo-6^1,6^2,6^3,6^4,6^5,6^6-hexahydro-1^1H-8-oxa-2(5,2)-oxazola-1(5,3)-indola-6(1,3)-pyridazinacycloundecaphane-4-yl)carbamate | – | – | – | – | – | – | – | – | – | – | – | – | – | ring closure, isolated yield ([2]; ester bond, EDCI/HOBt/DIPEA, DCM, 13.7 mM, 0.0 °C): 56.4% |
| tert-butyl ((6^3S,4S)-1^1-ethyl-1^2-(2-(methoxymethyl)phenyl)-10,10-dimethyl-2^5-nitro-5,7-dioxo-6^1,6^2,6^3,6^4,6^5,6^6-hexahydro-1^1H-8-oxa-1(5,3)-indola-6(1,3)-pyridazina-2(1,3)-benzenacycloundecaphane-4-yl)carbamate | – | – | – | – | – | – | – | – | – | – | – | – | – | ring closure, isolated yield ([2]; ester bond, EDCI/HOBt/DIPEA, DCM, 6.4 mM): 73% |
| tert-butyl ((6^3S,4S)-2^5-(difluoromethyl)-1^1-ethyl-1^2-(2-((S)-1-methoxyethyl)pyridin-3-yl)-10,10-dimethyl-5,7-dioxo-6^1,6^2,6^3,6^4,6^5,6^6-hexahydro-1^1H-8-oxa-1(5,3)-indola-6(1,3)-pyridazina-2(1,3)-benzenacycloundecaphane-4-yl)carbamate | – | – | – | – | – | – | – | – | – | – | – | – | – | ring closure, isolated yield ([2]; ester bond, EDCI/HOBt/DIPEA, DCM): 51% |
| tert-butyl ((6^3S,4S,Z)-1^1-ethyl-1^2-(2-((S)-1-methoxyethyl)pyridin-3-yl)-2^1,10,10-trimethyl-5,7-d ioxo-6^1,6^2,6^3,6^4,6^5,6^6-hexahydro-1^1H,2^1H-8-oxa-1(5,3)-indola-6(1,3)-pyridazina-2(5,3)-triazolacycloundecaphane-4-yl)carbamate | – | – | – | – | – | – | – | – | – | – | – | – | – | ring closure, isolated yield ([2]; cc_pd bond, XPhos Pd G3/XPhos/K3PO4, dioxane/H2O 5:1, 71.7 mM, 75.0 °C): 56.8% |
